Data: paper PMC2680961, “Homologous desensitization of signalling by the alpha (α) isoform of the human thromboxane A2 receptor: A specific role for nitric oxide signalling” (Biochimica et Biophysica Acta, 2007)
Substitutions are numbered along the chain they refer to.

How the values were obtained:
[1] = target: T1, TPα^S331,T337,S340A (Homo sapiens, UniProt P21731, S331A/S340A/T337A); experiment: [3H]SQ29,548 radioligand binding, Scatchard analysis, HEK.TPα^S331,T337,S340A
T1 construct: expressed in transfected cells
T1 sequence (P21731 1-343 S331A/T337A/S340A): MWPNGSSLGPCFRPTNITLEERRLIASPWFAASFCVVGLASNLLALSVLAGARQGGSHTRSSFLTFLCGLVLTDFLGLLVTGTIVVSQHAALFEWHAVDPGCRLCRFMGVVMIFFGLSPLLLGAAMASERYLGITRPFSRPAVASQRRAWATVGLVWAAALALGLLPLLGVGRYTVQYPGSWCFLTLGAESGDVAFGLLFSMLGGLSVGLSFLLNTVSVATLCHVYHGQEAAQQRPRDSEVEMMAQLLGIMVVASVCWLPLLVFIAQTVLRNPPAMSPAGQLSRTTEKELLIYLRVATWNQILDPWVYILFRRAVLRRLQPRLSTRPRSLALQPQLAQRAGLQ
Experimental: Cells were harvested by centrifugation at 500×g at 4 °C for 5 min and washed three times with ice-cold Ca^2+/Mg^2+-free phosphate-buffered saline (PBS). TP radioligand binding assays were carried out at 30 °C for 30 min in 100 μl reactions in the presence of 0–40 nM [^3H] […] Protein determinations were carried out using the Bradford assay.
Radioligand binding and Scatchard analysis data were analysed using GraphPad Prisim V4.0 programme (GraphPad Software Inc., San Diego CA, USA). Statistical analyses were carried out using the unpaired Student's t test using the Statworks Analysis Package. p-values ≤ 0.01 indicated statistically significant differences.

[2] = target: T2, TPα^T337,S340A (Homo sapiens, UniProt P21731, S340A/T337A); experiment: Intracellular calcium mobilization, HEK.TPα^T337,S340A cells; format: cell-based
T2 construct: expressed in transfected cells
T2 sequence (P21731 1-343 T337A/S340A): T1 sequence (P21731 1-343 S331A/T337A/S340A) with A331S
Experimental: Measurement of intracellular calcium mobilization ([Ca^2+]i) in FURA2/AM preloaded HEK 293 cell lines (2 × 10^6 cells/dish), each transiently co-transfected with pADVA (10 μg), and pCMV:Gαq (25 μg), was carried out as previously described. To investigate the effect of GRK2/βARK1 on TP-mediated [Ca^2+]i mobilization, HEK.TPα or HEK.TPβ cells (2 × 10^6 cells/dish) were co-transfected with pADVA (10 μg), pCMV:Gαq (25 μg) along with pRK5:βARK1^495–689 (25 μg), encoding a dominant negative form of GRK2/βARK1[39]. […] For each measurement of [Ca^2+]i mobilization, aliquots of cells were diluted to 0.825 × 10^6 cells/ml in HBSSHB, 1 mM CaCl2 and FURA2 fluorescence was recorded (2 ml aliquots of cells) at 37^ °C with gentle stirring with a Perkin Elmer-Cetus LS50-B spectrofluorometer at excitation wavelengths of 340 nm and 380 nm and emission wavelength of 510 nm, respectively.
Cells were stimulated with the TP agonist U46619 (1 μM) and changes in [Ca^2+]i mobilization were monitored as a function of time. […]
The vehicle had no effect on U46619-mediated [Ca^2+]i mobilization. Calibration of the signal was performed in each sample by adding 0.2% Triton X-100 to obtain the maximal fluorescence ratio (Rmax) and then 1 mM EGTA to obtain the minimal fluorescence ratio (Rmin). […]

[3] = target: T3, TPβ (Homo sapiens, UniProt P21731); experiment: Intracellular calcium mobilization, HEK.TPβ cells; format: cell-based
T3 construct: expressed in transfected cells
Experimental: Measurement of intracellular calcium mobilization ([Ca^2+]i) in FURA2/AM preloaded HEK 293 cell lines (2 × 10^6 cells/dish), each transiently co-transfected with pADVA (10 μg), and pCMV:Gαq (25 μg), was carried out as previously described. To investigate the effect of GRK2/βARK1 on TP-mediated [Ca^2+]i mobilization, HEK.TPα or HEK.TPβ cells (2 × 10^6 cells/dish) were co-transfected with pADVA (10 μg), pCMV:Gαq (25 μg) along with pRK5:βARK1^495–689 (25 μg), encoding a dominant negative form of GRK2/βARK1[39]. Approximately 48 h post-transfection, cells were harvested by scraping, washed twice in ice-cold PBS and resuspended in HBSSHB (modified Ca^2+/Mg^2+-free Hank's buffered salt solution, containing […], pH 7.67, 0.1% bovine serum albumin (BSA)) buffer at 10^7 cells/ml and incubated in the dark with 5 μM FURA2/AM for 45 min at 37 °C. Cells were collected by centrifugation (900×g, 5 min), washed once in an equal volume of HBSSHB, and were finally resuspended in HBSSHB buffer at 10^7 cells/ml and kept at room temperature in the dark for 40 min. For each measurement of [Ca^2+]i mobilization, aliquots of cells were diluted to 0.825 × 10^6 cells/ml in HBSSHB, 1 mM CaCl2 and FURA2 fluorescence was recorded (2 ml aliquots of cells) at 37^ °C with gentle stirring with a Perkin Elmer-Cetus LS50-B spectrofluorometer at excitation wavelengths of 340 nm and 380 nm and emission wavelength of 510 nm, respectively.
Cells were stimulated with the TP agonist U46619 (1 μM) and changes in [Ca^2+]i mobilization were monitored as a function of time. To assess agonist-mediated homologous desensitization, cells (0.825 × 10^6 cells/ml; 2 ml per assay) were stimulated with 1 μM U46619 (Primary stimulation) or, as a control, with the vehicle for 4 min; thereafter, cells were collected by centrifugation (900×g, 5 min); were washed twice in 2 ml HBSSHB, 1 mM CaCl2; and finally resuspended in 2 ml HBSSHB,1 mM CaCl2 and were left to recover over various time intervals (ranging from 0 to 60 min); thereafter, cells re-stimulated with 1 μM U46619 (Secondary stimulation) and changes in [Ca^2+]i mobilization were monitored as a function of time. To assess the role of protein kinase (PK) A, PKC or PKG on U46619-mediated desensitization of TPα signalling, cells were pre-incubated with the PKA inhibitor H-89 (10 μM), the PKC inhibitor GF 109203X (50 nM) or the PKG inhibitor KT 5823 (50 nM), for 15 min and respective kinase inhibitors were maintained throughout the primary/secondary U46619-stimulations and during the washes.
The vehicle had no effect on U46619-mediated [Ca^2+]i mobilization. Calibration of the signal was performed in each sample by adding 0.2% Triton X-100 to obtain the maximal fluorescence ratio (Rmax) and then 1 mM EGTA to obtain the minimal fluorescence ratio (Rmin). The ratio of the fluorescence at 340 nm to that at 380 nm is a measure of [Ca^2+]i, which assumes a Kd of 225 nM Ca^2+ for FURA2/AM. The results presented in the figures are representative data from at least three or four independent experiments and are plotted as changes in Ca^2+i mobilized (Δ[Ca^2+]i (nM)) as a function of time (s) upon ligand stimulation. Changes in [Ca^2+]i mobilization were determined by measuring peak rises in [Ca^2+]i mobilized (Δ[Ca^2+]i) and were calculated as mean changes in Δ[Ca^2+]i ± S.E.M. (nM).

T3 sequence (P21731 1-407 isoform P21731-2): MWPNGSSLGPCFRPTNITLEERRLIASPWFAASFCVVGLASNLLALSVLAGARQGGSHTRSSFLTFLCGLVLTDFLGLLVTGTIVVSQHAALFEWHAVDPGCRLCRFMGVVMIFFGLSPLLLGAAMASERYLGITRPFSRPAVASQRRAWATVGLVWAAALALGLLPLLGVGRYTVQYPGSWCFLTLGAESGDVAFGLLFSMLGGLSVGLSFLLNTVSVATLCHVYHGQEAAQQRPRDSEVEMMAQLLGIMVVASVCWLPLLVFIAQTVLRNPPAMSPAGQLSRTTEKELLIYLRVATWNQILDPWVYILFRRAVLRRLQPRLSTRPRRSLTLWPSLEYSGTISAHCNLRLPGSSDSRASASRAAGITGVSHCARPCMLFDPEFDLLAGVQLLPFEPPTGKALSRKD

SMILES | Bmax (pmol/mg protein ± S.E.M.) [1] [pmol/mg protein] | Δ[Ca2+]i, U46619-induced ([2]; primary 1 μM U46619 4 min) [nM] | Δ[Ca2+]i, U46619-induced ([2]; secondary 1 μM U46619 at 15 min) [nM] | Δ[Ca2+]i, U46619-induced ([3]; + GRK^DN, primary 1 μM U46619) [nM] | Δ[Ca2+]i, U46619-induced ([3]; + GRK^DN, secondary 1 μM U46619 at 15 min) [nM] | Δ[Ca2+]i, U46619-induced ([3]; − GRK^DN, primary 1 μM U46619) [nM] | Δ[Ca2+]i, U46619-induced ([3]; − GRK^DN, secondary 1 μM U46619 at 15 min) [nM]
O=C(O)CCC/C=C\C[C@@H]1[C@H](CNNC(=O)Nc2ccccc2)[C@H]2CC[C@@H]1O2 [SQ29,548] | 4.01 ± 0.05 | – | – | – | – | – | –
CCCCC[C@H](O)/C=C/[C@@H]1[C@@H](C/C=C\CCCC(=O)O)[C@H]2CO[C@@H]1C2 [U46619] | – | 179 ± 11 | 40 ± 3.4 | 195 ± 11 | 210 ± 12 | 180 ± 6.7 | 0
